Data from publication PMC4700511 (Biochemistry, 2015).
≈ marks a conversion by molar mass, not a printed value.

Experiments:
[1] = system: E. coli DH10B pBCSK(−) producing R228M; assay: MIC by agar dilution, E. coli DH10B pBCSK; type: cell-based; details: Escherichia coli
E. coli pBC SK(−) = assay: MIC by agar dilution, E. coli DH10B with empty pBC SK; type: cell-based; details: Escherichia coli
[2] = system: E. coli DH10B pBCSK(−) producing VIM-2 (228R); assay: MIC by agar dilution, E. coli DH10B pBCSK; type: cell-based; details: Escherichia coli
[3] = system: E. coli DH10B pBCSK(−) producing R228Q; assay: MIC by agar dilution, E. coli DH10B pBCSK; type: cell-based; details: Escherichia coli
[4] = system: E. coli DH10B pBCSK(−) producing R228Y; assay: MIC by agar dilution, E. coli DH10B pBCSK; type: cell-based; details: Escherichia coli
[5] = system: E. coli DH10B pBCSK(−) producing R228P; assay: MIC by agar dilution, E. coli DH10B pBCSK; type: cell-based; details: Escherichia coli
[6] = system: E. coli DH10B pBCSK(−) producing R228X (other variants); assay: MIC by agar dilution, E. coli DH10B pBCSK; type: cell-based; details: Escherichia coli, R228X: range of MIC values of the other variants; MHA
[7] = system: E. coli DH10B pBCSK(−) producing R228K; assay: MIC by agar dilution, E. coli DH10B pBCSK; type: cell-based; details: Escherichia coli
[8] = system: E. coli DH10B pBCSK(−) producing VIM-24 (R228L); assay: MIC by agar dilution, E. coli DH10B pBCSK; type: cell-based; details: Escherichia coli
VIM-24 [9] = target: T1, VIM-24 (Escherichia coli, UniProt Q5U7L7, R205L); assay: Hydrolysis of cefepime and ceftazidime by periplasm preparations, VIM-24; type: biochemical, Klebsiella pneumoniae; details: VIM-24 periplasmic preparation
VIM-24 [10] = type: biochemical, Klebsiella pneumoniae; details: VIM-24 (R228L) vs VIM-2
VIM-2 = VIM-2 (Escherichia coli, UniProt Q5U7L7); assay: Hydrolysis of cefepime and ceftazidime by periplasm preparations, VIM-2; type: biochemical, P. aeruginosa; details: VIM-2 periplasmic preparation
VIM-24 [11] = target: T1, VIM-24; type: biochemical, Klebsiella pneumoniae; details: VIM-24; substrate hydrolysis, 10 mM HEPES pH 7.5, 25 °C

| Structure (SMILES) | MIC ([1]; MHA) | MIC (E. coli pBC SK(−); MHA) | MIC ([2]; MHA) | MIC ([3]; MHA) | MIC ([4]; MHA) | MIC ([5]; MHA) | MIC [6] | MIC ([7]; MHA) | MIC ([8]; MHA) | MIC ([1]; MHA + 5 μM EDTA) | MIC ([1]; MHA + 250 μM Zn^2+) | MIC (E. coli pBC SK(−); MHA + 5 μM EDTA) | MIC (E. coli pBC SK(−); MHA + 250 μM Zn^2+) | MIC ([2]; MHA + 5 μM EDTA) | MIC ([2]; MHA + 250 μM Zn^2+) | MIC ([3]; MHA + 5 μM EDTA) | MIC ([3]; MHA + 250 μM Zn^2+) | MIC ([4]; MHA + 5 μM EDTA) | MIC ([4]; MHA + 250 μM Zn^2+) | MIC ([5]; MHA + 5 μM EDTA) | other results |
| --- | --- | --- | --- | --- | --- | --- | --- | --- | --- | --- | --- | --- | --- | --- | --- | --- | --- | --- | --- | --- | --- |
| CO/N=C(\C(=O)N[C@@H]1C(=O)N2C(C(=O)O)=C(CSc3nc(=O)c(=O)[nH]n3C)CS[C@H]12)c1csc(N)n1 [ceftriaxone] | 16 µg/mL (≈ 28.9 µM) | 0.5 µg/mL (≈ 0.902 µM) | 8 µg/mL (≈ 14.4 µM) | 32 µg/mL (≈ 57.7 µM) | 16 µg/mL (≈ 28.9 µM) | 0.5 µg/mL (≈ 0.902 µM) | 1 to 16 µg/mL (≈ 1.8 to 28.9 µM) | 1 µg/mL (≈ 1.8 µM) | 8 µg/mL (≈ 14.4 µM) |  |  |  |  |  |  |  |  |  |  |  |  |
| CC(C)(O/N=C(\C(=O)N[C@@H]1C(=O)N2C(C(=O)[O-])=C(C[n+]3ccccc3)CS[C@H]12)c1csc(N)n1)C(=O)O [ceftazidime] | 128 µg/mL (≈ 234 µM) | 0.06 µg/mL (≈ 0.11 µM) | 16 µg/mL (≈ 29.3 µM) | 128 µg/mL (≈ 234 µM) | 64 µg/mL (≈ 117 µM) | 1 µg/mL (≈ 1.83 µM) | 16 to 128 µg/mL (≈ 29.3 to 234 µM) | 1 µg/mL (≈ 1.83 µM) | 64 µg/mL (≈ 117 µM) | 64 µg/mL | 256 µg/mL | ≤ 1 µg/mL | ≤ 1 µg/mL | 16 µg/mL | 32 µg/mL | 128 µg/mL | 512 µg/mL | 64 µg/mL | 128 µg/mL | ≤ 1 µg/mL | rate of hydrolysis (initial velocity) in periplasm (VIM-24 [9]; 400 μM ceftazidime): 4e-07 M/s; kcat/KM increase of VIM-24 compared to VIM-2 (VIM-24 [10]): 6 fold; rate of hydrolysis (initial velocity) in periplasm (VIM-2; 400 μM ceftazidime): measurable rates of hydrolysis were not obtained; MIC ([5]; MHA + 250 μM Zn^2+): 4 µg/mL; MIC ([7]; MHA + 5 μM EDTA): ≤ 1 µg/mL; MIC ([7]; MHA + 250 μM Zn^2+): ≤ 1 µg/mL; MIC ([8]; MHA + 5 μM EDTA): 32 µg/mL; MIC ([8]; MHA + 250 μM Zn^2+): 128 µg/mL |
| CC1(C)S[C@@H]2[C@H](NC(=O)[C@H](N)c3ccccc3)C(=O)N2[C@H]1C(=O)O [ampicillin] | 1020 µg/mL (≈ 2930 µM) | 4 µg/mL (≈ 11.4 µM) | 512 µg/mL (≈ 1470 µM) | 1020 µg/mL (≈ 2930 µM) | 1020 µg/mL (≈ 2930 µM) | 32 µg/mL (≈ 91.6 µM) | 64 to 512 µg/mL (≈ 183 to 1470 µM) | 32 µg/mL (≈ 91.6 µM) | 512 µg/mL (≈ 1470 µM) |  |  |  |  |  |  |  |  |  |  |  |  |
| CO/N=C(\C(=O)N[C@@H]1C(=O)N2C(C(=O)O)=C(COC(C)=O)CS[C@H]12)c1csc(N)n1 [cefotaxime] | 16 µg/mL (≈ 35.1 µM) | 0.06 µg/mL (≈ 0.132 µM) | 8 µg/mL (≈ 17.6 µM) | 32 µg/mL (≈ 70.3 µM) | 16 µg/mL (≈ 35.1 µM) | 1 µg/mL (≈ 2.2 µM) | 2 to 32 µg/mL (≈ 4.39 to 70.3 µM) | 1 µg/mL (≈ 2.2 µM) | 16 µg/mL (≈ 35.1 µM) |  |  |  |  |  |  |  |  |  |  |  |  |
| O=C(Cc1cccs1)N[C@@H]1C(=O)N2C(C(=O)O)=C(/C=C/c3ccc([N+](=O)[O-])cc3[N+](=O)[O-])CS[C@H]12 [nitrocefin] |  |  |  |  |  |  |  |  |  |  |  |  |  |  |  |  |  |  |  |  | kcat (VIM-24 [11]): 171 ± 4 s⁻¹ |
| CO/N=C(\C(=O)N[C@@H]1C(=O)N2C(C(=O)[O-])=C(C[N+]3(C)CCCC3)CS[C@H]12)c1csc(N)n1 [cefepime] | 2 µg/mL (≈ 4.16 µM) | 0.03 µg/mL (≈ 0.0624 µM) | ≤ 0.5 µg/mL | 16 µg/mL (≈ 33.3 µM) | 8 µg/mL (≈ 16.6 µM) | 0.25 µg/mL (≈ 0.52 µM) | 1 to 4 µg/mL (≈ 2.08 to 8.32 µM) | 0.5 µg/mL (≈ 1.04 µM) | 4 µg/mL (≈ 8.32 µM) | 4 µg/mL | 2 µg/mL | ≤ 0.25 µg/mL | ≤ 0.25 µg/mL | 0.5 µg/mL | 0.5 µg/mL | 16 µg/mL | 32 µg/mL | 8 µg/mL | 8 µg/mL | ≤ 0.25 µg/mL | rate of hydrolysis (initial velocity) in periplasm (VIM-24 [9]; 800 μM cefepime): 5.3e-07 M/s; rate of hydrolysis (initial velocity) in periplasm (VIM-2; 800 μM cefepime): 2.9e-07 M/s; MIC ([5]; MHA + 250 μM Zn^2+): 0.5 µg/mL; MIC ([7]; MHA + 5 μM EDTA): ≤ 0.25 µg/mL; MIC ([7]; MHA + 250 μM Zn^2+): ≤ 0.25 µg/mL; MIC ([8]; MHA + 5 μM EDTA): 4 µg/mL; MIC ([8]; MHA + 250 μM Zn^2+): 4 µg/mL |
